Test results as given in patent US7351703B2, “Sulfonylamino carboxylic acid N-arylamides as guanylate cyclase activators” (Sanofi-Aventis Deutschland GmbH, priority 1999, dated 2008).

Legend:
[1] = molecular target: T1, soluble guanylate cyclase (sGC) (Bos taurus, UniProt P16068); experiment: Activation of soluble guanylate cyclase (cGMP enzyme immunoassay); assay type: biochemical; conditions: sGC isolated from bovine lung, stimulation of basal enzyme activity vs solvent control
T1 construct: The sGC employed had been isolated from bovine lung; from tissue; host or cells: bovine lung
T1 sequence (P16068 1-619): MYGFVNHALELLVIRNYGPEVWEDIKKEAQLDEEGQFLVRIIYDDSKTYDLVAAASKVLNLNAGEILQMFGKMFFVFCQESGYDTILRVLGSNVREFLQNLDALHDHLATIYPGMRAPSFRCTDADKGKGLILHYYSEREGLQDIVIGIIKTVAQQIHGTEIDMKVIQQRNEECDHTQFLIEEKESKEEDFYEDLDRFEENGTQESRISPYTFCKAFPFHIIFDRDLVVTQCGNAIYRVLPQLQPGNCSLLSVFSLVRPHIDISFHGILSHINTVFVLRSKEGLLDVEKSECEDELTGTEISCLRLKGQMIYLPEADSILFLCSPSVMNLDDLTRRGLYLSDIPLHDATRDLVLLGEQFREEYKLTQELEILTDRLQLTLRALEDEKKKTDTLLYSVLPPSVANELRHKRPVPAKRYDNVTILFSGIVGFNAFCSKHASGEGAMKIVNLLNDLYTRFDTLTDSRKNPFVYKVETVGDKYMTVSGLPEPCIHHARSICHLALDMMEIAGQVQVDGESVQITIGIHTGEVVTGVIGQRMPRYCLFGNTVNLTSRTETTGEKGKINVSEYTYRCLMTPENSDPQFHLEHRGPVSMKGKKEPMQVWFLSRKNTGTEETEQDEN
T1 sequence (P19687 1-691 partner): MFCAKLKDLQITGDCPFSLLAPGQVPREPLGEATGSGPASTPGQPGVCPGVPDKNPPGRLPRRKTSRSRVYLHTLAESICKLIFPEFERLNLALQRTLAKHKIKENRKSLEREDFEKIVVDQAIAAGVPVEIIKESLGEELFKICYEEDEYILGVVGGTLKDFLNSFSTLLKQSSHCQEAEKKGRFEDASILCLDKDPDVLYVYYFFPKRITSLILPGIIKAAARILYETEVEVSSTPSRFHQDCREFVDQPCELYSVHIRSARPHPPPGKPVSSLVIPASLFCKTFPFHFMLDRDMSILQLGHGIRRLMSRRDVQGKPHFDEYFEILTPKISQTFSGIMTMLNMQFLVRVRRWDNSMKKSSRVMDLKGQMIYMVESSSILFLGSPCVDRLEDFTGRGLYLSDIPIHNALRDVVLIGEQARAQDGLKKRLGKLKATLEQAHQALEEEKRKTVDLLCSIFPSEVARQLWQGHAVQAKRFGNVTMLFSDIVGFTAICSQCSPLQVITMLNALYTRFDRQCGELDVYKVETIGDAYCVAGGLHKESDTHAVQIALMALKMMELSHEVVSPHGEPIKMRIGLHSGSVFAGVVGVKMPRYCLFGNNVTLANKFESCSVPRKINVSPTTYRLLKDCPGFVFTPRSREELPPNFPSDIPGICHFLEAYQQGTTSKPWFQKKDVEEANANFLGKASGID
Method: The activation of soluble guanylate cyclase (sGC), which catalyzes the conversion of guanosine triphosphate (GTP) to cyclic guanosine monophosphate (cGMP) and pyrophosphate, by the compounds according to the invention was quantified with the aid of an enzyme immunoassay (EIA) from Amersham. For this, the test substances were first incubated with sGC in microtiter plates and then the quantity of the resulting cGMP was determined.
The sGC employed had been isolated from bovine lung (see Methods in Enzymology, Volume 195, p. 377). The test solutions (100 μl per well) contained 50 mM triethanolamine (TEA) buffer (pH 7.5), 3 mM MgCl2, 3 mM reduced glutathione (GSH), 0.1 mM GTP, 1 mM 3-isobutyl-1-methylxanthine (IBMX), suitably diluted enzyme solution and the test substance or, in the control experiments, solvent. The test substances were dissolved in dimethyl sulfoxide (DMSO) and the solution was diluted with DMSO/water such that the final concentration c of test substance in the test batch had the value indicated below. The DMSO concentration in the test batch was 5% (v/v). The reaction was started by addition of the sGC. The reaction mix was incubated at 37° C. for 15 to 20 minutes and then stopped by ice-cooling and addition of the stop reagent (50 mM EDTA, pH 8.0). An aliquot of 50 μl was taken and employed for the determination of the cGMP content using the acetylation protocol of the Amersham cGMP EIA kit. The absorption of the samples was measured at 450 nm (reference wavelength 620 nm) in a microtiter plate reading apparatus. The cGMP concentration was determined by means of a calibration curve, which was obtained under the same experimental conditions. The activation of the sGC by a test substance is indicated as n-fold stimulation of the basal enzyme activity which was found in the control experiments (with solvent instead of test substance) (calculated according to the formula n-fold stimulation=[cGMP]test substance/[cGMP]control).

| n-fold stimulation ([1]; concentration c 25 μM) [n-fold] | melting point [°C] | n-fold stimulation ([1]; concentration c 50 μM) [n-fold] | n-fold stimulation ([1]; concentration c 100 μM) [n-fold] | n-fold stimulation ([1]; concentration c 10 μM) [n-fold] | Structure (SMILES) |
| --- | --- | --- | --- | --- | --- |
| 2.8 | 211 |  |  |  | O=C(Nc1ccc2ccccc2c1)c1cc(Cl)ccc1NS(=O)(=O)c1ccc(Cl)cc1 [Example 12, 5-Chloro-2-(4-chlorophenylsulfonylamino)-N-(2-naphthyl)benzamide] |
|  | 226 | 2.4 |  |  | CC(=O)c1ccc(NC(=O)c2cc(Cl)ccc2NS(=O)(=O)c2ccc(Cl)cc2)cc1 [Example 24, 5-Chloro-2-(4-chlorophenylsulfonylamino)-N-(4-acetylphenyl)benzamide] |
|  | 190 |  | 1.8 |  | COc1ccc(NC(=O)c2cc(Cl)ccc2NS(=O)(=O)c2ccc(Cl)cc2)cc1 [Example 11, 5-Chloro-2-(4-chlorophenylsulfonylamino)-N-(4-methoxyphenyl)benzamide] |
| 5.5 | 216 |  |  |  | O=C(Nc1cccc(C(F)(F)F)c1)c1cc(Cl)ccc1NS(=O)(=O)c1ccc(Cl)cc1 [Example 4, 5-Chloro-2-(4-chlorophenylsulfonylamino)-N-(3-trifluoromethylphenyl)benzamide] |
|  | 189 |  | 2 |  | O=C(Nc1ccc2ccccc2c1)c1ccccc1NS(=O)(=O)c1ccc(Cl)cc1 [Example 3, 2-(4-Chlorophenylsulfonylamino)-N-(2-naphthyl)benzamide] |
|  | 205 |  |  | 9.3 | O=C(Nc1ccc(Oc2ccccc2)cc1)c1cc(Cl)ccc1NS(=O)(=O)c1ccc(Cl)cc1 [Example 5, 5-Chloro-2-(4-chlorophenylsulfonylamino)-N-(4-phenoxyphenyl)benzamide] |
|  | 228 |  | 1.7 |  | O=C(Nc1cccc(Cl)c1)c1cc(Cl)ccc1NS(=O)(=O)c1ccc(Cl)cc1 [Example 10, 5-Chloro-2-(4-chlorophenylsulfonylamino)-N-(3-chlorophenyl)benzamide] |
|  | 235 |  |  | 9.9 | CS(=O)(=O)N(c1ccc(NC(=O)c2cc(Cl)ccc2NS(=O)(=O)c2ccc(Cl)cc2)cc1)S(C)(=O)=O [Example 15, 5-Chloro-2-(4-chlorophenylsulfonylamino)-N-(4-(bismethylsulfonylamino)phenyl)benzamide] |
|  | 250 |  | 1.8 |  | O=C(Nc1cc(Cl)cc(Cl)c1)c1cc(Cl)ccc1NS(=O)(=O)c1ccc(F)cc1 [Example 13, 5-Chloro-2-(4-fluorophenylsulfonylamino)-N-(3,5-dichlorophenyl)benzamide] |
|  | 228.5 | 8 |  |  | O=C(Nc1ccc(N2CCOCC2)cc1)c1cc(Cl)ccc1NS(=O)(=O)c1ccc(Cl)cc1 [Example 21, 5-Chloro-2-(4-chlorophenylsulfonylamino)-N-(4-(morpholin-4-yl)phenyl)benzamide] |
|  | 185 |  | 1.7 |  | CCOC(=O)c1ccc(NC(=O)c2cc(Cl)ccc2NS(=O)(=O)c2ccc(Cl)cc2)cc1 [Example 14, Ethyl 4-(5-chloro-2-(4-chlorophenylsulfonylamino)benzoylamino)benzoate] |
|  | 202 |  | 3.2 |  | CCOC(=O)c1cc(NC(=O)c2cc(Cl)ccc2NS(=O)(=O)c2ccc(Cl)c(Cl)c2)ccc1Cl [Example 18, Ethyl 2-chloro-5-(5-chloro-2-(3,4-dichlorophenylsulfonylamino)benzoylamino)benzoate] |
